In patent US20100323990A1, “SHIP 1 MODULATOR PRODRUGS” (THE UNIVERSITY OF BRITISH COLUMBIA, priority 2006, published 2010):

System: SHIP+/+ bone marrow derived macrophages
Assay: LPS-stimulated TNFα production in SHIP+/+ bone marrow derived macrophages
Format: cell-based, mice
Conditions: for suppression of TNFα production: SHIP+/+ cells, 10 ng/mL LPS 2 h
Protocol: Bone marrow cells were aspirated from 4 to 8 week old C57B16×129Sv mixed background mice and SHIP^+/+ and SHIP^−/− mast cells prepared as described previously. Bone marrow derived macrophages from SHIP^+/+ and SHIP^−/− mice were obtained and maintained in IMDM supplemented with 10% FCS, 150 μM MTG, 2% C127 cell conditioned medium as a source of macrophage colony stimulating factor (M-CSF) (macrophage medium)
LPS stimulation of macrophages. For the analysis of LPS-stimulated TNFα production, 2×10^5 cells were plated the night before in 24 well plates in macrophage medium. The next day, the medium was changed and AQX-016A or carrier was added to cells at the indicated concentrations for 30 min prior to the addition of 10 ng/mL LPS. Supernatants were collected for TNFα determination by ELISA (BD Biosciences, Mississauga, ON, Canada). For analysis of intracellular signaling, 2×10^6 cells were plated the night before in 6 cm tissue culture plates. The next day, the cells were cultured in macrophage medium without M-CSF for 1 hr at 37° C. and then pretreated with AQX-016A or carrier for 30 min prior to the addition of 10 ng/mL LPS for 15 min. Cells were washed with 4° C. PBS and resuspended in lysis buffer (50 mM Hepes, 2 mM EDTA, 1 mM NaVO4, 100 mM NaF, 50 mM NaPPi and 1% NP40) supplemented with Complete Protease Inhibitor Cocktail (Roche, Montreal, Canada). Lysates were rocked at 4° C. for 30 min and clarified by centrifuging 20 min at 12000×g. Lysates were then made 1× in Laemmli's buffer, boiled 2 min and loaded onto 7.5% SDS polyacrylamide […]. Immunoblot analysis for phospho PKB (Cell Signalling, Mississauga, Ont), SHIP and actin (Santa Cruz, Santa Cruz, Calif.) were carried out as described previously. Stimulation of mast cells by FcεRI crosslinking. Mast cells were pre-loaded overnight in BMMC medium lacking IL-3 with 0.1 μg/ml anti-DNP IgE (SPE-7, Sigma, Oakville, Ont). For calcium flux measurements, cells were incubated with 2 μM fura 2-acetoxymethyl ester (Molecular Probes, Eugene, Oreg.) in Tyrode's buffer at 23° C. for 45 min. Cells were then washed and incubated in the presence of vehicle control, LY294002 or AQX-016A 30 min prior to stimulation with the indicated concentration of DNP-human serum albumin (DNP-HSA). Calcium influx was monitored by spectrofluorometry. For analysis of intracellular signaling, cells were pre-loaded with anti-DNP IgE as above, pre-treated with AQX-016A or buffer control for 30 min at 37° C. and stimulated with 20 ng/ml DNP-HSA for 5 min. Total cell lysates were then prepared and analyzed for phospho-PKB, phospho-p38^MAPK, phospho-MAPK, Grb-2 (Cell Signalling, Mississauga, Ont) and SHIP^6 by immunoblot analysis.
The target specificity and biological efficacy of AQX-016A were assessed by comparing AQX-016A's effects on PI3K-regulated processes in primary SHIP^+/+ vs SHIP^−/− macrophages and mast cells. […] LPS stimulation of macrophages is associated with a PIP3-dependent release of pro-inflammatory mediators such as TNFα. The action of AQX-016A on SHIP^+/+ vs SHIP^−/− bone marrow derived macrophages was examined. Cells were pretreated for 30 min with AQX-016A prior to stimulation with 10 ng/mL of LPS for 2 h. AQX-016A was able to suppress TNFα production in SHIP^+/+ cells by 30% at 3 μM and 50% at 15 μM (FIG. 8A). […] Activation of mast cells via IgE+ antigen crosslinking of their IgE receptors results in elevation of intracellular calcium levels.

Compound	suppression of TNFα production (3 μM)	suppression of TNFα production (15 μM)	TNFα production, SHIP+/+ vs SHIP−/− macrophages (LPS stimulated)	EC50 (Mus musculus, Macrophage, SHIP+/+ macrophages, LPS stimulated, read-out: EC50 for inhibition of TNFα production)
Cc1cc(O)c(O)c2c1[C@]1(C)CCC3C(C)(C)CCC[C@]3(C)[C@H]1C2 (stereo partly shown) [AQX-016A]	30%	50%		
Cc1cc(O)cc2c1[C@]1(C)CCC3C(C)(C)CCC[C@]3(C)[C@H]1C2 (stereo partly shown) [Compound 100]			selectively inhibited	0.3 to 0.6 µM
